For orientation: IC50 means the point on the concentration scale where inhibition reaches its midpoint. A low value points to inhibition by little substance.

One assay has as its system CCNE1 amplified COV318 cells. As to the kind of experiment: Cell cycle analysis by FACS in COV318 cells with control or p16 siRNA. It is filed as cell-based, human. The note with it: control siRNA-treated cells; 100 nM; sixteen hours. The protocol:
To confirm the role of p16 in CDK2-sensitivity of CCNE-amplified cells, COV318 cells were treated with control or p16-specifict siRNA.
Bulk DNA was stained with DAPI. Compound-treated and DMSO treated control cells were acquired with CytoFlex (Beckman Coulter) and were analyzed using the FlowJo software. For cell cycle analysis of cells with siRNA knockdown, 72 hours after siRNA transfection, cells exposed to 10 μM EdU for 3 hours before detection of Click-iT Alexa Fluor® 647 azide kit.
Background: In flow cytometry, cells or beads pass a laser one at a time.
As to `C[C@@]1(O)CCC[C@H]1n1c(=O)ccc2cnc(NC3CCN(S(C)(=O)=O)CC3)nc21` [Compound A, 8-((1R,2R)-2-hydroxy-2-methylcyclopentyl)-2-((1-(methylsulfonyl)piperidin-4-yl)amino)pyrido[2,3-d]pyrimidin-7(8H)-one], the “percentage of S phase cells” value is on record as “significantly decreased”.

Still in this assay, the particulars now being: p16 knocked down cells; 100 nM; sixteen hours; compared to DMSO control.
For `C[C@@]1(O)CCC[C@H]1n1c(=O)ccc2cnc(NC3CCN(S(C)(=O)=O)CC3)nc21` [Compound A, 8-((1R,2R)-2-hydroxy-2-methylcyclopentyl)-2-((1-(methylsulfonyl)piperidin-4-yl)amino)pyrido[2,3-d]pyrimidin-7(8H)-one], the “percentage of S phase cells” value is recorded as “not significantly decreased”.

Another assay addresses CDK2/Cyclin E1 (Homo sapiens (Human), UniProt P24941). As to the kind of experiment: CDK2/Cyclin E1 HTRF enzyme activity assay. It is filed as biochemical. The note with it: 1 mM ATP. Here is the method:
CDK2/Cyclin E1 enzyme activity assays utilize full-length human CDK2 co-expressed as N-terminal GST-tagged protein with FLAG-Cyclin E1 in a baculovirus expression system (Carna Product Number 04-165). Assays are conducted in white 384-well polystyrene plates in a final reaction volume of 8 μL. CDK2/Cyclin E1 (0.25 nM) is incubated with compounds (40 nL serially diluted in DMSO) in the presence of ATP (50 μM or 1 mM) and 50 nM ULight™-labeled eIF4E-binding protein 1 (THR37/46) peptide (PerkinElmer) in assay buffer (containing 50 mM HEPES pH 7.5, 1 mM EGTA, 10 mM MgCl2, 2 mM DTT, 0.05 mg/mL BSA, and 0.01% Tween 20) for 60 minutes at room temperature. The reactions are stopped by the addition of EDTA and Europium-labeled anti-phospho-4E-BP1 antibody (PerkinElmer), for a final concentration of 15 mM and 1.5 nM, respectively. HTRF signals are read after 1 hour at room temperature on a PHERAstar FS plate reader (BMG Labtech). Data is analyzed with IDBS XLFit and GraphPad Prism 5.0 software using a three or four parameter dose response curve to determine IC50 for each compound.
`CNS(=O)(=O)c1ccc(Nc2ncc3c(n2)N([C@@H]2CCC[C@]2(C)O)C(=O)C32CC2)cc1` (relative stereo) [Example 1, 4-((7′-((cis)-2-hydroxy-2-methylcyclopentyl)-6′-oxo-6′,7′-dihydrospiro[cyclopropane-1,5′-pyrrolo[2,3-d]pyrimidin]-2′-yl)amino)-N-methylbenzenesulfonamide] had an IC50 of at most 50 nM.

Compound `CNS(=O)(=O)c1ccc(Nc2ncc3c(n2)N([C@@H]2CCC[C@H]2C)C(=O)C32CC2)cc1` (relative stereo) [Example 2, N-methyl-4-((7′-((trans)-2-methylcyclopentyl)-6′-oxo-6′,7′-dihydrospiro[cyclopropane-1,5′-pyrrolo[2,3-d]pyrimidin]-2′-yl)amino)benzenesulfonamide] displayed an IC50 of at most 50 nM. In turn, `CC1(NS(=O)(=O)c2ccc(Nc3ncc4c(n3)N([C@@H]3CCC[C@]3(C)O)C(=O)C43CC3)cc2)CNC1` (relative stereo) [Example 3, 4-((7′-((cis)-2-hydroxy-2-methylcyclopentyl)-6′-oxo-6′,7′-dihydrospiro[cyclopropane-1,5′-pyrrolo[2,3-d]pyrimidin]-2′-yl)amino)-N-(3-methylazetidin-3-yl)benzenesulfonamide] had an IC50 of at most 50 nM. In turn, `CNS(=O)(=O)c1ccc(Nc2ncc3c(n2)N([C@@H]2CCC[C@@]2(C)O)C(=O)C32CC2)c(F)c1` (relative stereo) [Example 11, 3-fluoro-4-((7′-((trans)-2-hydroxy-2-methylcyclopentyl)-6′-oxo-6′,7′-dihydrospiro[cyclopropane-1,5′-pyrrolo[2,3-d]pyrimidin]-2′-yl)amino)-N-methylbenzenesulfonamide] gave an IC50 of at most 50 nM. For the compound `[2H]C([2H])([2H])NS(=O)(=O)c1ccc(Nc2ncc3c(n2)N([C@@H]2CCC[C@@]2(C)O)C(=O)C32CC2)cc1` (single isomer, unassigned) [Example 9, 4-((7′-((trans)-2-hydroxy-2-methylcyclopentyl)-6′-oxo-6′,7′-dihydrospiro [cyclopropane-1,5′-pyrrolo[2,3-d]pyrimidin]-2′-yl)amino)-N-(methyl-d)benzene sulfonamide], the IC50 was at most 50 nM.

For `CC[C@@H](N1C(=O)C2(CC2)c2cnc(Nc3ccc(S(=O)(=O)NC)cc3)nc21)C(F)(F)F` [Example 4, (R)—N-methyl-4-((6′-oxo-7′-(1,1,1-trifluorobutan-2-yl)-6′,7′-dihydrospiro[cyclopropane-1,5′-pyrrolo[2,3-d]pyrimidin]-2′-yl)amino)benzenesulfonamide], the IC50 was at most 50 nM.

Turning to `CC1CCCC1N1C(=O)C2(CC2)c2cnc(Nc3ccc(S(=O)(=O)N[C@@H]4CCCN(C)C4)cc3)nc21` (stereo partly drawn) [Example 5, 4-((7′-(2-methylcyclopentyl)-6′-oxo-6′,7′-dihydrospiro[cyclopropane-1,5′-pyrrolo[2,3-d]pyrimidin]-2′-yl)amino)-N—((R)-1-methylpiperidin-3-yl) benzenesulfonamide], the IC50 is at most 50 nM. Same read-out and setting: next, `CNS(=O)(=O)c1ccc(Nc2ncc3c(n2)N([C@@H]2CCC[C@@H](O)C2)C(=O)C32CC2)cc1` [Example 6, 4-((7′-((1R,3R)-3-hydroxycyclohexyl)-6′-oxo-6′,7′-dihydrospiro [cyclopropane-1,5′-pyrrolo[2,3-d]pyrimidin]-2′-yl)amino)-N-methylbenzene sulfonamide]: at most 50 nM; `[2H]C([2H])([2H])NS(=O)(=O)c1ccc(Nc2ncc3c(n2)N([C@@H]2CCC[C@@H](O)C2)C(=O)C32CC2)cc1` [Example 7, 4-((7′-((1R,3R)-3-hydroxycyclohexyl)-6′-oxo-6′,7′-dihydrospiro[cyclopropane-1,5′-pyrrolo[2,3-d]pyrimidin]-2′-yl)amino)-N-(methyl-d)benzenesulfonamide]: at most 50 nM. Compound `[2H]C([2H])([2H])NS(=O)(=O)c1ccc(Nc2ncc3c(n2)N([C@@H](C)C2CC2)C(=O)C32CC2)cc1` [Example 8, (S)-4-((7′-(1-cyclopropylethyl)-6′-oxo-6′,7′-dihydrospiro[cyclopropane-1,5′-pyrrolo[2,3-d]pyrimidin]-2′-yl)amino)-N-(methyl-d)benzenesulfonamide] registered an IC50 of at most 50 nM. `CC(C)(O)CNS(=O)(=O)c1ccc(Nc2ncc3c(n2)N([C@@H]2CCC[C@@]2(C)O)C(=O)C32CC2)cc1` [Example 10, 4-((7′-(2-hydroxy-2-methylcyclopentyl)-6′-oxo-6′,7′-dihydrospiro [cyclopropane-1,5′-pyrrolo[2,3-d]pyrimidin]-2′-yl)amino)-N-(2-hydroxy-2-methylpropyl)benzenesulfonamide] registered an IC50 of at most 50 nM. `CN(C)CCNS(=O)(=O)c1ccc(Nc2ncc3c(n2)N(c2cc(F)ccc2Cl)C(=O)C32CC2)cc1` [Example 12, 4-((7′-(2-chloro-5-fluorophenyl)-6′-oxo-6′,7′-dihydrospiro[cyclopropane-1,5′-pyrrolo[2,3-d]pyrimidin]-2′-yl)amino)-N-(2-(dimethylamino)ethyl)benzenesulfonamide]: the IC50 is at most 50 nM. `CNS(=O)(=O)c1ccc(Nc2ncc3c(n2)N(c2cc4c(cc2Cl)CNCC4)C(=O)C32CC2)cc1` [Example 13, 4-((7′-(7-chloro-1,2,3,4-tetrahydroisoquinolin-6-yl)-6′-oxo-6′,7′-dihydrospiro[cyclopropane-1,5′-pyrrolo[2,3-d]pyrimidin]-2′-yl)amino)-N-methylbenzenesulfonamide] had an IC50 of at most 50 nM. `CNS(=O)(=O)c1ccc(Nc2ncc3c(n2)N(c2cc(F)ccc2C)C(=O)C32CC2)cc1` [Example 14, 4-((7′-(5-fluoro-2-methylphenyl)-6′-oxo-6′,7′-dihydrospiro[cyclopropane-1,5′-pyrrolo[2,3-d]pyrimidin]-2′-yl)amino)-N-methylbenzenesulfonamide] gave an IC50 of at most 50 nM. As to `CNS(=O)(=O)c1ccc(Nc2ncc3c(n2)N(c2cc(F)ccc2Cl)C(=O)C32CC2)cc1` [Example 15, 4-((7′-(2-chloro-5-fluorophenyl)-6′-oxo-6′,7′-dihydrospiro[cyclopropane-1,5′-pyrrolo[2,3-d]pyrimidin]-2′-yl)amino)-N-methylbenzenesulfonamide], the IC50 was at most 50 nM.

Another assay relates to Rb phosphorylated on serine 780 in CCNE1 amplified COV318 cells. The experiment in a line: CDK2 pRb (S780) HTRF cellular assay. The note with it: Homo sapiens, FIG. 10B. It is filed as cell-based. Here is the method:
CDK2 pRb ([…]) HTRF cellular assay enables the quantitative detection of Rb phosphorylated on […] in CCNE1 amplified COV318 cells. The assay comprised two antibodies: Europium cryptate labeled anti-Phospho-Rb […] antibody (donor) and d2 labeled anti-Rb antibody (acceptor). […] The final concentrations of compounds start from 3 μM. […] After 2 h of incubation at room temperature, HTRF signals were measured on the PHERAstar microplate reader (BMG Labtech), using 340 nm as excitation wavelength, a 620 nm filter for the Europium donor fluorescence, and a 665-nm filter for the acceptor fluorescence detection. HTRF signals were calculated as the HTRF ratio (ratio of fluorescence measured at 665 nm and 620 nm)×10000.
A general note: TR-FRET usually uses a lanthanide donor and a delayed reading to cut background.
`C[C@@]1(O)CCC[C@H]1n1c(=O)ccc2cnc(NC3CCN(S(C)(=O)=O)CC3)nc21` [Compound A, 8-((1R,2R)-2-hydroxy-2-methylcyclopentyl)-2-((1-(methylsulfonyl)piperidin-4-yl)amino)pyrido[2,3-d]pyrimidin-7(8H)-one] gave a concentration for half-maximal inhibition (IC50) of 37 nM.

The record behind these values is patent US11919904B2, “Sulfonylamide compounds as CDK2 inhibitors” (Incyte Corporation, priority 2019, dated 2024).
